From EP0442769A2 (priority 1990, dated 1991)
Read-outs that look alike come from different tables or passages of the source.

Key:
membrane érythrocytaire = assay: Membrane adsorption at haematocrit 45%; format: in vitro ADME
Source text: (§1) Ces composés ont été également testés pour leur absorption membranaire et stabilité érythrocitaire et plasmatique.

Stability in haemolysate = format: in vitro ADME; parameters: key: + : stable.; *a: * : stabilité dans le sérum frais à 37°C au bout de 24h : on ne retrouve que 8 à 12%, 78% et 65% de la quantité de départ dans le sérum respectivement pour (a), (b) et (c).; *b: * : stabilité dans le sérum frais à 37°C au bout de 24h : on ne retrouve que 8 à 12%, 78% et 65% de la quantité de départ dans le sérum respectivement pour (a), (b) et (c).; *c: * : stabilité dans le sérum frais à 37°C au bout de 24h : on ne retrouve que 8 à 12%, 78% et 65% de la quantité de départ dans le sérum respectivement pour (a), (b) et (c)
Source text: as §1

Stability in fresh serum = format: in vitro ADME; parameters: key to Stabilité dans sérum frais 4°C / Stabilité dans sérum frais 37°C: + : stable.; *a: * : stabilité dans le sérum frais à 37°C au bout de 24h : on ne retrouve que 8 à 12%, 78% et 65% de la quantité de départ dans le sérum respectivement pour (a), (b) et (c).; *b: * : stabilité dans le sérum frais à 37°C au bout de 24h : on ne retrouve que 8 à 12%, 78% et 65% de la quantité de départ dans le sérum respectivement pour (a), (b) et (c).; *c: * : stabilité dans le sérum frais à 37°C au bout de 24h : on ne retrouve que 8 à 12%, 78% et 65% de la quantité de départ dans le sérum respectivement pour (a), (b) et (c); conditions: for Stabilité dans sérum frais 37°C / remaining at 24 h: * = fraction of starting quantity found after 24h, 37°C; for remaining at 24 h: read-out: Stabilité dans sérum frais 37°C
Source text: as §1

GR chargés = assay: Extracellular leak from loaded red blood cells, 24 h incubation; format: in vitro ADME
Source text: as §1

sites opioides de type µ = target: T1, sites opioides de type µ (Oryctolagus cuniculus, UniProt G1TAQ8); assay: [3H]diprenorphine competition binding, crude membrane fraction of rabbit cerebellum; parameters: species or system lapin
T1 construct: fraction membranaire brute obtenue à partir de tissu frais (cervelet de lapin, cervelet de cobaye); from tissue; host or cells: rabbit cerebellum (New Zealand rabbits), crude membrane fraction
Procedure: (§2) Les animaux utilisés sont des lapins néo-zélandais d'environ 1500 g et des cobayes tricolores d'environ 300 g.
(§3) La préparation utilisée est une fraction membranaire brute obtenue à partir de tissu frais (cervelet de lapin, cervelet de cobaye) par une méthode standard d'homogénéisation et de centrifugation différentielle. La suspension finale est en tampon tris-HCl (50 mM, pH 7,4) et contient environ 5 mg de protéine par ml.
(§4) [15,16(n)-³H] diprenorphine à 25-30 CI/mmol (Amersham International plc, Amersham, Angleterre).
(§5) Radioligand (0,3 pmol) de [³H] diprenorphine et fraction membranaire brute (0,25 mg de protéine) sont incubés pendant 1 heure à 25°C dans un volume final de 1,0 ml en tampon Tris-HCl (50 mM, pH 7,4) : • (i) en absence de toute drogue compétitrice , • (ii) en présence de 12 concentrations croissantes de la nouvelle drogue et, • (iii) en présence de 10 µmol/l de diprenorphine non radioactive.
(§6) Le contenu de chaque tube est ensuite rapidement filtré (sous vide) sur disques de fibre de verre (Whatman GF/B) disposés sur un jeu de rampes de filtration Millipore modèle 1225. Les filtres sont rincés avec 2 x 3 ml de tampon froid (O-2°C) puis séchés sous une lampe IR pendant 15 minutes. La radioactivité de chaque filtre, dans 3 ml de cocktail Ready-sol MB (Beckman) est comptée avec un compteur à scintillation liquide Kontron modèle MR 300.
(§7) A partir des paramètres mesurés, il est ensuite calculé les différentes constantes Kx pour les sites considérés.
(§8) Ces valeurs ont été calculées à partir des valeurs mesurées des concentrations CI.50 de drogue inhibant de 50 % la liaison à l'équilibre de (3H) diprenorphine utilisée à la concentration fixe de 0,3 nM.

sites opioides de type k = target: T2, sites opioides de type k (Cavia porcellus, UniProt P41144); assay: [3H]diprenorphine competition binding, crude membrane fraction of guinea pig cerebellum; parameters: species or system cobaye; conditions: guinea pig cerebellum membranes; for IC50: [3H]diprenorphine 0,3 nM, 1 h at 25°C, (n) in brackets, read-out: I50κ (concentration inhibitrice 50); for Ki: calculated from the measured CI.50, read-out: KIκ (constante de dissociation apparente du composé testé)
T2 construct: fraction membranaire brute obtenue à partir de tissu frais (cervelet de lapin, cervelet de cobaye); from tissue; host or cells: guinea pig cerebellum (tricolour guinea pigs), crude membrane fraction
Procedure: as §2, §3, §4, §5, §6, §7, §8

[1] = [3H]diprenorphine 0,3 nM, rabbit cerebellum membranes, 1 h at 25°C, (n) in brackets, read-out: I50µ (concentration inhibitrice 50)
[2] = calculated from the measured CI.50, rabbit cerebellum membranes, read-out: KIµ (constante de dissociation apparente du composé testé)

Compound	Adsorption membranaire à Hte 45% (membrane érythrocytaire) [%]	Stabilité dans hémolysat 4°C (Stability in haemolysate)	Stabilité dans hémolysat 37°C (Stability in haemolysate)	Stabilité dans sérum frais 4°C (Stability in fresh serum)	Stabilité dans sérum frais 37°C (Stability in fresh serum)	GR chargés : Incubation 24h Fuite extra-cellulaire 4°C (GR chargés) [%]	GR chargés : Incubation 24h Fuite extra-cellulaire 37°C (GR chargés) [%]	IC50 (sites opioides de type µ; [1]) [nM]	Ki (sites opioides de type µ; [2]) [nM]	affinité apparente pour les sites opioïdes µ (sites opioides de type µ; result in words)	IC50 (sites opioides de type k) [nM]	Ki (sites opioides de type k) [nM]	remaining at 24 h (Stability in fresh serum) [%]	IC50 (sites opioides de type µ) [nM]	Ki (sites opioides de type µ) [nM]
C=CCN1CC[C@]23c4c5ccc(OP(=O)(O)O)c4O[C@H]2C(=O)CC[C@@]3(O)[C@H]1C5 [naloxone-3-phosphate]	0	+	+	+	+	1	12	3.5 ± 0.3	0.9	activité légèrement plus élevée que la naloxone	–	–	–	–	–
COP(=O)(O)Oc1ccc2c3c1O[C@H]1C(=O)CC[C@@]4(O)[C@@H](C2)N(CC2CC2)CC[C@]314 [naltrexone-3-phosphate(OMe)]	10	+	+	+	+	5	40	130 ± 9	33	–	270 ± 35	68	–	–	–
O=C1CC[C@@]2(O)[C@H]3Cc4ccc(OP(=O)(O)OP(=O)(O)OP(=O)(O)O)c5c4[C@@]2(CCN3CC2CC2)[C@H]1O5 [naltrexone-3-triphosphate]	22	+	+	+	–	0	0	5.2 ± 0.4	1.3	–	15 ± 1.4	3.8	65	–	–
C=CCN1CC[C@]23c4c5ccc(OP(=O)(O)OP(=O)(O)OP(=O)(O)O)c4O[C@H]2C(=O)CC[C@@]3(O)[C@H]1C5 [naloxone-3-triphopshate]	22	+	+	+	–	0	0	21 ± 2	5.2	–	106 ± 15	27	78	–	–
C=CCN1CC[C@]23c4c5ccc(OS(=O)(=O)O)c4O[C@H]2C(=O)CC[C@@]3(OS(=O)(=O)O)[C@H]1C5 [naloxone-3,14-disulfate]	34	+	+	+	+	5	50	20800	5200	–	> 100000	> 25000	–	–	–
O=C1CC[C@@]2(OS(=O)(=O)O)[C@H]3Cc4ccc(OS(=O)(=O)O)c5c4[C@@]2(CCN3CC2CC2)[C@H]1O5 [naltrexone-3,14-disulfate]	40	+	+	+	+	15	70	7850	1960	–	39000	9700	–	–	–
O=C1CC[C@@]2(O)[C@H]3Cc4ccc(OP(=O)(O)O)c5c4[C@@]2(CCN3CC2CC2)[C@H]1O5 [naltrexone-3-phosphate]	22	+	+	+	–	1	12	22 ± 2	5.6	–	30 ± 3	7.5	8 to 12	–	–
O=C1CC[C@@]2(O)[C@H]3Cc4ccc(O)c5c4[C@@]2(CCN3CC2CC2)[C@H]1O5 [naltrexone, reference compound]	–	–	–	–	–	–	–	–	–	–	–	–	–	1.2 ± 0.2	0.3
C=CCN1CC[C@]23c4c5ccc(OS(=O)(=O)O)c4O[C@H]2C(=O)CC[C@@]3(O)[C@H]1C5 [naloxone-3-sulfate]	–	–	–	–	–	–	–	4300	1070	–	–	–	–	–	–
O=C1CC[C@@]2(O)[C@H]3Cc4ccc(OS(=O)(=O)O)c5c4[C@@]2(CCN3CC2CC2)[C@H]1O5 [naltrexone-3-sulfate]	–	–	–	–	–	–	–	1540	385	–	2200	550	–	–	–
C=CCN1CC[C@]23c4c5ccc(OP(=O)(O)OC)c4O[C@H]2C(=O)CC[C@@]3(O)[C@H]1C5 [naloxone-3-phosphate(OMe)]	10	+	+	+	+	6	40	1200	260	–	–	–	–	–	–
